# Test results from PubChem BioAssay (NCI).
#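 Results reflect a 48-hour exposure of cells in 96-well plates to compound at five concentrations. The concentration for 50% growth inhibition is given as GI50. TGI: total growth inhibition.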
# Assays:
# Test in all cases: NCI tumour cell line growth inhibition, 48 h
# [1] = test system: EKVX NSCLC
# [2] = test system: HL-60(TB) leukemia
# [3] = test system: HOP-62 NSCLC
# [4] = test system: MALME-3M melanoma
# [5] = test system: OVCAR-8 ovarian
# [6] = test system: SF-295 CNS
# [7] = test system: SK-MEL-5 melanoma
# [8] = test system: T-47D breast
# [9] = test system: UACC-257 melanoma
# [10] = test system: UACC-62 melanoma
Structure (SMILES),TGI [1] [µM],TGI [2] [µM],TGI [3] [µM],TGI [4] [µM],TGI [5] [µM],TGI [6] [µM],TGI [7] [µM],TGI [8] [µM],TGI [9] [µM],TGI [10] [µM],GI50 [1] [µM],GI50 [2] [µM],GI50 [3] [µM],GI50 [4] [µM],GI50 [5] [µM],GI50 [6] [µM],GI50 [7] [µM],GI50 [8] [µM],GI50 [9] [µM],GI50 [10] [µM]
C=CCNC1=C2C[C@@H](C)C[C@@H](OC)C(OC(=O)CCCN(C)C)[C@H](C)/C=C(\C)[C@@H](OC(N)=O)[C@H](OC)/C=C\C=C(/C)C(=O)NC(=CC1=O)C2=O (stereo not given in full),26.1,20.2,21.5,14.4,16,20.5,8.73,24.7,27.5,26,–,–,–,–,–,–,–,–,–,–
CCSSCS(C)(=O)=O,> 100,> 100,> 100,> 100,57.4,> 100,> 100,> 100,57.1,> 100,–,–,–,–,–,–,–,–,–,–
O=C(CCc1cccc(O)c1)NCCc1cccc(O)c1,> 100,> 100,> 100,> 100,> 100,> 100,> 100,> 100,> 100,> 100,–,–,–,–,–,–,–,–,–,–
COc1ccc(-c2oc3ccc(C)cc3c(=O)c2O)cc1,> 100,> 100,> 100,> 100,79.3,> 100,> 100,> 100,> 100,> 100,–,–,–,–,–,–,–,–,–,–
COc1ccc(C2SC(N)=Nc3c2c(C)nn3C(=O)c2ccncc2)cc1 (stereo not given),> 100,> 100,> 100,> 100,> 100,> 100,> 100,> 100,> 100,> 100,–,–,–,–,–,–,–,–,–,–
CSc1nc2ccccc2c(=O)n1/N=C1\C(=O)N(CN2CCOCC2)c2ccc(Cl)cc21,64.8,64,> 100,> 100,> 100,> 100,> 100,> 100,51.2,61.3,–,–,–,–,–,–,–,–,–,–
Oc1nc(N/N=C/c2c[nH]c3ccccc23)[nH]c1/C=C1\C=Nc2ccccc21,89.6,32.9,80.9,33.8,29.2,40.9,38.1,36.5,79.4,37.7,–,–,–,–,–,–,–,–,–,–
CC(C)CC(=O)NC(Nc1ccc(S(=O)(=O)Nc2ncccn2)cc1)(C(F)(F)F)C(F)(F)F,> 100,> 100,> 100,> 100,> 100,> 100,> 100,> 100,> 100,> 100,–,–,–,–,–,–,–,–,–,–
COCn1c(C)c(C)c2c(=O)oc(=O)[nH]c21,> 100,> 100,> 100,> 100,> 100,> 100,> 100,> 100,> 100,> 100,–,–,–,–,–,–,–,–,–,–
CC/C(Cl)=N\OC(=O)Nc1ccc(OC)cc1,11.9,4.36,30.3,10.7,37.4,31.1,14.6,13.8,30.2,24.6,–,–,–,–,–,–,–,–,–,–
C1=C[C@@H]2c3ccc4cnccc4c3NC[C@@H]2C1,> 100,> 100,> 100,> 100,> 100,> 100,> 100,> 100,> 100,> 100,–,–,–,–,–,–,–,–,–,–
NNC(=O)CC(=O)Nc1ccc(Cl)cc1,> 100,> 100,> 100,> 100,> 100,> 100,> 100,> 100,> 100,> 100,–,–,–,–,–,–,–,–,–,–
COc1cc(/C=C2\C[C@H]3[C@@H]4CC=C5C[C@@H](N6CCCC6)CC[C@]5(C)[C@H]4CC[C@]3(C)[C@H]2O)cc(OC)c1OC,30.2,21.9,30.6,23.9,23.4,26.6,30,44.6,28.5,32.7,–,–,–,–,–,–,–,–,–,–
COC(c1ccsc1)C(C#N)(C#N)N=Cc1ccsc1 (stereo not given),32.9,16.2,34.8,29.8,49.9,34.9,27.7,67.7,29.6,28.7,–,–,–,–,–,–,–,–,–,–
COc1cc(Oc2nc3ccccc3nc2C(=O)O)cc(OC)c1OC,> 100,> 100,> 100,> 100,> 100,> 100,> 100,> 100,> 100,> 100,–,–,–,–,–,–,–,–,–,–
CCN1CCN(C(=O)[C@]23CC[C@@H](C)[C@H](C)[C@@H]2C2=CC[C@@H]4[C@@]5(C)C/C(=C/c6cccnc6)C(=O)C(C)(C)[C@@H]5CC[C@@]4(C)[C@]2(C)CC3)CC1,7.32,5,5.86,2.75,6.29,3.05,3.14,13.4,5.95,2.96,2.17,2.08,2.43,1.4,2.32,1.63,1.75,2.79,2.21,1.51
O=C(Nc1ccccc1)c1cc2c(cc1Cl)Sc1nccn1S2(=O)=O,60.5,56.1,> 59.8,74.3,> 100,> 100,31.1,> 72.9,53.7,38.4,–,–,–,–,–,–,–,–,–,–

Structure (SMILES),TGI [1] [µM],TGI [2] [µM],TGI [3] [µM],TGI [4] [µM],TGI [5] [µM],TGI [6] [µM],TGI [7] [µM],TGI [8] [µM],TGI [9] [µM],TGI [10] [µM],GI50 [1] [µM],GI50 [2] [µM],GI50 [3] [µM],GI50 [4] [µM],GI50 [5] [µM],GI50 [6] [µM],GI50 [7] [µM],GI50 [8] [µM],GI50 [9] [µM],GI50 [10] [µM]
O=c1c2ccccc2oc2c1ccc1ncccc12,96.9,> 100,78.1,52.2,> 100,45.9,28,31.2,70.6,73.6,–,–,–,–,–,–,–,–,–,–
Nn1c(Cc2ccc(Cl)cc2)n[nH]c1=O,> 100,> 100,> 100,> 100,> 100,> 100,> 100,> 100,> 100,> 100,–,–,–,–,–,–,–,–,–,–
CCNC(=S)N/N=C/c1cc(OC)ccc1O,> 100,> 100,> 100,> 100,> 100,> 100,> 100,> 100,> 100,> 100,–,–,–,–,–,–,–,–,–,–
C/C(O)=C/c1nc2ccccc2nc1/C=C(/C)O,71.5,56.4,67.1,50.7,83.3,67.5,35.4,36.9,41,45.4,–,–,–,–,–,–,–,–,–,–
CC(C)(C)c1cc(C(O)(C(=O)O)C(=O)O)cc(C(C)(C)C)c1O,> 100,> 100,> 100,> 100,> 100,> 100,> 100,> 100,> 100,> 100,–,–,–,–,–,–,–,–,–,–
Cc1cc2c(cc1-c1cc3c(cc1C)C(C(C)C)=C(O)C(=O)/C3=C\Nc1nc(-c3ccccc3)cs1)/C(=C/Nc1nc(-c3ccccc3)cs1)C(=O)C(O)=C2C(C)C,52.1,> 100,31.7,> 100,77,40.9,31.4,> 100,47,35.7,–,–,–,–,–,–,–,–,–,–
CN(Cc1c2ccccc2cc2ccccc12)S(=O)(=O)c1ccc(-c2c3nc(c(-c4ccc(S(=O)(=O)N(C)Cc5c6ccccc6cc6ccccc56)cc4)c4ccc([nH]4)c(-c4ccc(S(=O)(=O)N(C)Cc5c6ccccc6cc6ccccc56)cc4)c4nc(c(-c5ccc(S(=O)(=O)N(C)Cc6c7ccccc7cc7ccccc67)cc5)c5ccc2[nH]5)C=C4)C=C3)cc1,> 100,> 100,84.6,> 100,> 100,> 100,> 100,> 100,> 100,> 100,–,–,–,–,–,–,–,–,–,–
CCCC1NC(C#N)(C#N)C(CCC)NC1(C#N)C#N (stereo not given),> 100,0.343,> 100,> 100,21.6,> 100,> 100,> 71.5,> 100,> 100,–,–,–,–,–,–,–,–,–,–
Cc1cc(O)c(C(C)C)cc1NC(=O)Nc1cccc2ccccc12,62.7,> 100,30.9,40.3,> 100,28.2,27.4,> 100,33.4,25.9,–,–,–,–,–,–,–,–,–,–
[O-][n+]1onc2c3nn(-c4ccccc4)nc3ccc21,> 100,8.68,> 100,> 100,> 100,> 100,> 100,32.4,> 92.2,> 100,–,–,–,–,–,–,–,–,–,–
Cc1c(-c2ccccc2)c(C#N)c2nnn(-c3ccccc3)c(=O)n12,> 100,> 100,> 100,> 100,> 100,> 100,> 100,> 100,> 100,> 100,–,–,–,–,–,–,–,–,–,–
O=C(NCC1Nc2ccncc2S(=O)(=O)N1)c1ccc(Br)cc1 (stereo not given),> 100,> 100,> 100,97.5,> 100,> 100,> 100,> 100,> 100,> 100,–,–,–,–,–,–,–,–,–,–
CCOC(=O)c1ccc(-c2cc(C)[nH]n2)[nH]1,> 100,> 100,> 100,> 100,> 100,> 100,> 100,> 100,> 100,> 100,–,–,–,–,–,–,–,–,–,–
COc1cc(C2c3cc4c(cc3C(O)C3CCC(=O)N23)OCO4)cc(OC)c1OC (stereo not given),> 100,55.1,> 100,> 100,> 100,32.6,> 100,> 100,> 100,> 100,–,–,–,–,–,–,–,–,–,–
C(=N\Nc1ncc(-c2cc3cc4c(cc3o2)OCO4)s1)/c1c[nH]c2ccccc12,6.44,14.4,7.95,4.02,> 100,4.31,3.23,> 100,7.77,3.72,1.27,2.18,1.6,1.4,1.65,1.82,1.66,2.09,2.57,1.75
Nc1ccc2c(c1)C1Oc3ccccc3CC1CO2 (stereo not given),> 100,> 100,> 100,> 100,> 100,> 100,> 100,> 100,> 100,> 100,–,–,–,–,–,–,–,–,–,–
CC1(C)C2CCC1(CS(=O)(=O)Nc1ccccc1)C(=O)C2 (stereo not given),> 100,> 100,> 100,> 100,> 100,> 100,> 100,> 100,> 100,> 100,–,–,–,–,–,–,–,–,–,–
